Experiments:
[1] = target: T1, STEP (280–566) catalytic domain (Homo sapiens, UniProt P54829); assay: DiFMUP phosphatase inhibition assay, STEP; type: biochemical; details: for IC50: catalytic domain, DiFMUP at Km (4 μM); for selectivity for SHP2 over STEP: from IC50 values against catalytic domains
T1 construct: the codon-optimized STEP (280–566) catalytic domains; His tag (pET-15b) (N); made in house; host or cells: E. coli BL21(DE3)
T1 sequence (P54829 280-565 limits assumed): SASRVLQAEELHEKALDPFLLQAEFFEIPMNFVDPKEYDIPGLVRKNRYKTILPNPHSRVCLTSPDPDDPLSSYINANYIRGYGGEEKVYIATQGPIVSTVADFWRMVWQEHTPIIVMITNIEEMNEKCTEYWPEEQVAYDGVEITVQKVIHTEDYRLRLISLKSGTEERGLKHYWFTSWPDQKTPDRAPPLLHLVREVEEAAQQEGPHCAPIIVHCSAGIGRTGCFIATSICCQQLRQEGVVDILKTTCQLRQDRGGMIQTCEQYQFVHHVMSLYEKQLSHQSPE
Experimental: (§1) Selectivity is one of the biggest challenges in PTP inhibitor development. […] Similar to SHP2, we adapted a 384-well plate format DiFMUP assay for recombinant PTP1B and STEP and performed Michaelis–Menten experiments to determine DiFMUP Km values for each phosphatase. IC50 values of our inhibitors for PTP1B and STEP were determined in 10-point dose–response assays with DiFMUP used at the concentration corresponding to the respective Km value. […] Other inhibitors with good relative selectivity for SHP2 included SBI-4668 (13-fold selective over PTP1B; 73-fold selective over STEP) and SBI-3404 (fivefold selective over PTP1B; >71-fold selective over STEP).
(§2) Recombinant human full-length SHP2 (1–594) WT and E76K mutants, as well as the SHP2cat (248–527), were expressed and purified as described before ([36], [41]). Recombinant human PTP1B (1–300) and the codon-optimized STEP (280–566) catalytic domains were cloned into PET-15b and expressed as N-His-tagged fusion proteins. For expression, transformed BL21(DE3) cells were grown and induced similar as described for SHP2. Collected cells were resuspended in lysis buffer (25 mM Tris, pH 7.5, 300 mM NaCl, 50 mM imidazole, and 10% glycerol) with 100 mg/l RNaseA and were lysed with two passages using a microfluidizer. The lysate was clarified by centrifugation at 15,000g for 50 min and applied to nickel–nitrilotriacetic acid resin. The column resin was washed, and the PTP1B or STEP protein was eluted in lysis buffer at 300 mM imidazole. The PTP1B or STEP protein was further purified by S75 size-exclusion chromatography in 50 mM Tris, pH 7.5, 50 mM NaCl. The eluted peak fractions were supplemented with tris(2-carboxyethyl)phosphine to 10 mM, concentrated by ultrafiltration, and stored at −80 °C. The purified yield of PTP1B was 33 mg/l cell culture; the yield of STEP was 16 mg/l cell culture.
(§3) SHP2 inhibitors were tested at RT in a 384-well plate format standard phosphatase fluorescence intensity assay using DiFMUP (Invitrogen/Thermo Fisher Scientific) as a substrate and a total reaction volume of 25 μl. SHP2 inhibitors or vehicle (DMSO) were spotted in triplicate into a black Greiner FLUOTRAC 200 384-well microplate (catalog no.: 781076; Greiner) for a 10-point dose–response assay using an Echo 555 Liquid Handler (Labcyte, Inc). PTP working solutions were prepared at a 0.625 nM concentration (for a final concentration of 0.5 nM) in buffer containing 50 mM Bis–Tris, pH 6.0, 50 mM NaCl, 5 mM DTT, and 0.01% Tween-20. Prior to the assay, a dually phosphorylated IRS-1 peptide (625 nM [500 nM final] ([30])) was added to full-length WT SHP2 working solutions and incubated for 20 min. DiFMUP working solutions at 5× final concentration were prepared in 50 mM Bis–Tris, pH 6.0, 50 mM NaCl, and 0.01% Tween-20. About 20 μl of PTP working solution was dispensed into the microplate and incubated with inhibitor for 20 min at RT. […] The reaction was initiated by addition of 5 μl DiFMUP working solutions. Fluorescence intensity was measured in kinetic mode (every minute for 7 or 10 min) using a Tecan Spark Multimode Microplate Reader (Tecan) with an excitation wavelength of 360 nm and an emission wavelength of 460 nm. The initial rates were determined from the linear progression curves of the PTP reaction. The nonenzymatic hydrolysis of the substrate was corrected by using a control without addition of enzyme. IC50 values were calculated from the corrected initial rates by nonlinear regression using the program GraphPad Prism, version 8 (GraphPad Software, Inc) software. Dose–response inhibition assays of SHP2cat using the substrate OMFP were performed similarly as described previously for DiFMUP. OMFP was used at a concentration corresponding to its Km value for SHP2cat (50 μM final). Fluorescence intensity was measured in kinetic mode (every minute for 10 min) using a Tecan Spark Multimode Microplate Reader with an excitation wavelength of 485 nm and an emission wavelength of 535 nm. […]

[2] = target: T2, PTP1B (1–300) catalytic domain (Homo sapiens, UniProt P18031); assay: DiFMUP phosphatase inhibition assay, PTP1B; type: biochemical; details: for IC50: catalytic domain, DiFMUP at Km (25 μM); for selectivity for SHP2 over PTP1B: from IC50 values against catalytic domains
T2 construct: Recombinant human PTP1B (1–300); His tag (pET-15b) (N); made in house; host or cells: E. coli BL21(DE3)
T2 sequence (P18031 1-300): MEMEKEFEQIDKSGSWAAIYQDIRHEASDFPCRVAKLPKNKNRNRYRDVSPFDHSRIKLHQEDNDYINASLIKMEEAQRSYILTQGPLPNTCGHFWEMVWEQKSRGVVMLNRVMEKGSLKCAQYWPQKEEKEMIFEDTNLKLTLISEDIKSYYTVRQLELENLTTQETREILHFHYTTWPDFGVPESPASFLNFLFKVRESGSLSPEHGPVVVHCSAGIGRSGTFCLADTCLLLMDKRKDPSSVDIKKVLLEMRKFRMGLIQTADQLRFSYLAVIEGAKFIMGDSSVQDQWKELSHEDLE
Experimental: as §1, §2, §3

| Structure (SMILES) | IC50 [1] [µM] | selectivity for SHP2 over STEP [1] [fold] | IC50 [2] [µM] | selectivity for SHP2 over PTP1B [2] |
| --- | --- | --- | --- | --- |
| Nc1ccc(NC(=O)c2cc(-c3ccc(/C=C4\Sc5ccccc5C4=O)o3)ccc2O)cc1 [SBI-2130, (Z)-N-(4-Aminophenyl)-2-hydroxy-5-(5-((3-oxobenzo[b]thiophen-2(3H)-ylidene)methyl)furan-2-yl)benzamide] | 44 | 200 | 6.8 | 31 fold |
| O=C1CCCC1=Cc1ccc(-c2ccc(O)c(C(=O)Nc3ccccc3)c2)o1 [SBI-3192, 2-Hydroxy-5-(5-((2-oxocyclopentylidene)methyl)furan-2-yl)-N-phenylbenzamide] | 27 | – | 1.9 | – |
| O=C(Nc1ccccc1)c1cc(-c2ccc(/C=C3\Sc4ccccc4C3=O)o2)ccc1O [SBI-4668, (Z)-2-Hydroxy-5-(5-((3-oxobenzo[b]thiophen-2(3H)-ylidene)methyl)furan-2-yl)-N-phenylbenzamide] | 53 | 73 | 9.4 | 13 fold |

The next lines start with the values.

| IC50 [1] [µM] | selectivity for SHP2 over STEP [1] [fold] | IC50 [2] [µM] | selectivity for SHP2 over PTP1B [2] | Structure (SMILES) |
| --- | --- | --- | --- | --- |
| – | > 71 | 7.4 | fivefold | N#Cc1cc(-c2ccc(/C=C3\Sc4ccccc4C3=O)o2)ccc1O [SBI-3404, (Z)-2-Hydroxy-5-(5-((3-oxobenzo[b]thiophen-2(3H)-ylidene)methyl)furan-2-yl)benzonitrile] |
| 7.7 | – | 5.3 | – | O=C1/C(=C/c2ccc(-c3ccc(O)c(-c4nn[nH]n4)c3)o2)Sc2ccccc21 [SBI-3405, (Z)-2-((5-(4-Hydroxy-3-(2H-tetrazol-5-yl)phenyl)furan-2-yl)methylene)benzo[b]thiophen-3(2H)-one] |

Source: PMC8760490, “Discovery of novel furanylbenzamide inhibitors that target oncogenic tyrosine phosphatase SHP2 in leukemia cells” (The Journal of Biological Chemistry, 2021)
